From ChEMBL document CHEMBL1201862, “PubChem BioAssay data set” (2004)
Calls of active or inactive are those of the source.

Tests used:
[1] = target: T1, Bcl-2-related protein A1 (Mus musculus, UniProt Q07440); type: functional;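 note: confirmatory dose–response counterscreen on Bfl-1, used to check hits from a UBC13 polyubiquitin inhibitor campaign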
T1 sequence (Q07440 whole entry): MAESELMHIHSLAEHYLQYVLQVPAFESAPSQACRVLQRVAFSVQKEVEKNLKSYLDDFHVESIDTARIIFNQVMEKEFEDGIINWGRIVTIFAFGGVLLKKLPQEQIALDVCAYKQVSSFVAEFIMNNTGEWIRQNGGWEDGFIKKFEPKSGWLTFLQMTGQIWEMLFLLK

[2] = target: T2, Ubiquitin-conjugating enzyme E2 N (Homo sapiens, UniProt P61088); type: functional
T2 sequence (P61088 whole entry): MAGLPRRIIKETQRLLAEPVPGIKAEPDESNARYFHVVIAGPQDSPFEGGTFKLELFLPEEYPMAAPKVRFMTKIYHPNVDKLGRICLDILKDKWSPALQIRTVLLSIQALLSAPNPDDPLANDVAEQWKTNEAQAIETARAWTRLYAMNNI

[3] = target: T2, Ubiquitin-conjugating enzyme E2 N; type: functional; remark: listed apart in the source
[4] = target: Large T antigen (Simian virus 40, UniProt P03070); type: functional, Betapolyomavirus macacae;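 note: Confirmatory-stage PubChem screen for compounds that inhibit SV40 T antigen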
Chain of Large T antigen (P03070 whole entry): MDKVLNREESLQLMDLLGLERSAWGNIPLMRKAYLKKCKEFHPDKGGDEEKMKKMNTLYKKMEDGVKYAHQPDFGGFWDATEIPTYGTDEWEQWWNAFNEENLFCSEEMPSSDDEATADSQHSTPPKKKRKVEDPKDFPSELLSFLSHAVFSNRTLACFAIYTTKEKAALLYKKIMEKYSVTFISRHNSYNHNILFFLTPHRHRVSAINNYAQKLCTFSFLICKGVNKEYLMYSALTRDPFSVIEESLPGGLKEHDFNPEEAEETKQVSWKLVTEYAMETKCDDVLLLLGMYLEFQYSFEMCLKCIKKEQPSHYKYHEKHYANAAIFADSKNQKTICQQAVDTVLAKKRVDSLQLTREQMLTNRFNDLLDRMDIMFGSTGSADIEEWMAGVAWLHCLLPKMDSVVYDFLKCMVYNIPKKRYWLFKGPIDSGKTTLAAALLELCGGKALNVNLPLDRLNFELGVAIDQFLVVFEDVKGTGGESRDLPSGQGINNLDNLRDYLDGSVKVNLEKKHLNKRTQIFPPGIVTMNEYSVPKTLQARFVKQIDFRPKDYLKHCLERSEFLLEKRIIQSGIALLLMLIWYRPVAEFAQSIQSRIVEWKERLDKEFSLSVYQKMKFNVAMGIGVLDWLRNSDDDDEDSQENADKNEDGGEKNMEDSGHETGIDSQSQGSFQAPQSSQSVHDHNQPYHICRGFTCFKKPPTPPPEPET

[5] = target: DNA dC->dU-editing enzyme APOBEC-3G (Homo sapiens, UniProt Q9HC16); assay: Dose Response confirmation of small molecule APOBEC3G DNA Deaminase Inhibitors via a fluorescence-based single-stranded DNA deaminase assay. [Related pubchem assays (depositor defined):AID493012, AID493028]; type: functional
Chain of DNA dC->dU-editing enzyme APOBEC-3G (Q9HC16 whole entry): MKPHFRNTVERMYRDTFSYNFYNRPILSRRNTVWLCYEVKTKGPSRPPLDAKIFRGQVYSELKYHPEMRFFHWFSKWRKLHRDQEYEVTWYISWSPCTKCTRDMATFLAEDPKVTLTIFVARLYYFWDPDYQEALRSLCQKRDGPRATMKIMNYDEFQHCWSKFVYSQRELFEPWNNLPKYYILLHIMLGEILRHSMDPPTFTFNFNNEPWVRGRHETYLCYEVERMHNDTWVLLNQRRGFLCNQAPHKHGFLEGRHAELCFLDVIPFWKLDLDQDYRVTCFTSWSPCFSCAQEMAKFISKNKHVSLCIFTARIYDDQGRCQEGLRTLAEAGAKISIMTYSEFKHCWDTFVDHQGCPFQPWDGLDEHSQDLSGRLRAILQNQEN

[6] = target: DNA dC->dU-editing enzyme APOBEC-3A (Homo sapiens, UniProt P31941); assay: APOBEC3A DNA deaminase inhibitors, dose response, biochemical (AID 504722); type: functional
Chain of DNA dC->dU-editing enzyme APOBEC-3A (P31941 whole entry): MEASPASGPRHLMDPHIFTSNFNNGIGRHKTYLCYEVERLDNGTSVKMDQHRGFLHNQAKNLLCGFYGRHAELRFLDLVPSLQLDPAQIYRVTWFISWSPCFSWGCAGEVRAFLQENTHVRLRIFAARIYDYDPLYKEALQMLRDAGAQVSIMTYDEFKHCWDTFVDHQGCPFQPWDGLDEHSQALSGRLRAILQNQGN

[7] = target: Glucose-6-phosphate 1-dehydrogenase (Homo sapiens, UniProt P11413); assay: human G6PD enzyme inhibitors, dose response, selectivity assay for P. falciparum G6PD inhibitor project, biochemical, fluorescence (AID 504792); type: functional
Chain of Glucose-6-phosphate 1-dehydrogenase (P11413 whole entry): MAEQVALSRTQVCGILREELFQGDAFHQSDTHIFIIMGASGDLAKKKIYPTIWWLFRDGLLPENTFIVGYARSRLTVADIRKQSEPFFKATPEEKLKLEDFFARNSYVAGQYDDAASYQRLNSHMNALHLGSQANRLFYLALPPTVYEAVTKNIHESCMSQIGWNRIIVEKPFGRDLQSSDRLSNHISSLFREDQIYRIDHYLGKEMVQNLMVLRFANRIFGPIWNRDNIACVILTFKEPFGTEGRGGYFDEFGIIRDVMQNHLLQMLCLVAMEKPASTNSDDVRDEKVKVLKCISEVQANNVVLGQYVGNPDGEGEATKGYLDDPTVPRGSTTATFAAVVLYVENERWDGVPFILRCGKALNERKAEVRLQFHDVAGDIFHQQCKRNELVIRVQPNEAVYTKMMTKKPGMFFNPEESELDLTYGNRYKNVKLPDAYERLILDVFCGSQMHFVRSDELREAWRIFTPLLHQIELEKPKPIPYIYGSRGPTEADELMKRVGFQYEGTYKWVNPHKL

[8] = target: E3 ubiquitin-protein ligase XIAP (Homo sapiens, UniProt P98170); assay: Counter Screen using XIAP-Bir3 for Chemical Antagonists of Bir1/2 domains of IAP-family anti-apoptotic proteins. [Related pubchem assays (depositor defined):AID1018, AID1449, AID1514, AID1638, AID1749, AID1750, AID488957, AID488963]
Chain of E3 ubiquitin-protein ligase XIAP (P98170 whole entry): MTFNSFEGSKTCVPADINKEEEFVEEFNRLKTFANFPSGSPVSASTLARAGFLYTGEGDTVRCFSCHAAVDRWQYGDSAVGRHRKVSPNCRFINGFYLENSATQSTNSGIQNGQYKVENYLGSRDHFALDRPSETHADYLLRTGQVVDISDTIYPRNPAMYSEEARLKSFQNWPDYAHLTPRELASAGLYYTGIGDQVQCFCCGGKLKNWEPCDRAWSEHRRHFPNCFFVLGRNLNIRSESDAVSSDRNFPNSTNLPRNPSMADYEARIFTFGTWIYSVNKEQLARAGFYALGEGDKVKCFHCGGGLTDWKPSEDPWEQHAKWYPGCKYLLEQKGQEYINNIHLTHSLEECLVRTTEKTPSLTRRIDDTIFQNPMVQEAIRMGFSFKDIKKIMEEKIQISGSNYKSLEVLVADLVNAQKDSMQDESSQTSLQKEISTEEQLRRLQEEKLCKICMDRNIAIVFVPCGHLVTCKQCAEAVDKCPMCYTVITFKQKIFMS

[9] = Luminescence Cell-Based Dose Confirmation HTS to Identify Inhibitors of Platelet Dense Granule Release. [Related pubchem assays: 1663 (Primary HTS), 1678 (Summary of Project)]; type: functional
[10] = target: G-protein coupled receptor 55 (Homo sapiens, UniProt Q9Y2T6); assay: GPR55 agonists via beta-arrestin recruitment, primary screen, imaging, U2OS cells, beta-arrestin-GFP redistribution (AID 1961); type: functional
Chain of G-protein coupled receptor 55 (Q9Y2T6 whole entry): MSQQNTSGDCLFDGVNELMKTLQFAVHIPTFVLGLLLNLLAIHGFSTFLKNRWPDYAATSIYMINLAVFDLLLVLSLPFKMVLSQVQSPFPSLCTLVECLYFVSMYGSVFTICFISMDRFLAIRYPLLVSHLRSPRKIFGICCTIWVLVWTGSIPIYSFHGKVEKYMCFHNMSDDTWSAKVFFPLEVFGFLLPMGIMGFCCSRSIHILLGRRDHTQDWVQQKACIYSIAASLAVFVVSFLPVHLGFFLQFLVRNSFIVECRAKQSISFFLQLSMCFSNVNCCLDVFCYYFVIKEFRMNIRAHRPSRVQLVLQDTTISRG

[11] = target: Luciferin 4-monooxygenase (Photinus pyralis, UniProt P08659); assay: firefly luciferase enzyme inhibitors, dose response, biochemical, luminescence (AID 1891)
Chain of Luciferin 4-monooxygenase (P08659 whole entry): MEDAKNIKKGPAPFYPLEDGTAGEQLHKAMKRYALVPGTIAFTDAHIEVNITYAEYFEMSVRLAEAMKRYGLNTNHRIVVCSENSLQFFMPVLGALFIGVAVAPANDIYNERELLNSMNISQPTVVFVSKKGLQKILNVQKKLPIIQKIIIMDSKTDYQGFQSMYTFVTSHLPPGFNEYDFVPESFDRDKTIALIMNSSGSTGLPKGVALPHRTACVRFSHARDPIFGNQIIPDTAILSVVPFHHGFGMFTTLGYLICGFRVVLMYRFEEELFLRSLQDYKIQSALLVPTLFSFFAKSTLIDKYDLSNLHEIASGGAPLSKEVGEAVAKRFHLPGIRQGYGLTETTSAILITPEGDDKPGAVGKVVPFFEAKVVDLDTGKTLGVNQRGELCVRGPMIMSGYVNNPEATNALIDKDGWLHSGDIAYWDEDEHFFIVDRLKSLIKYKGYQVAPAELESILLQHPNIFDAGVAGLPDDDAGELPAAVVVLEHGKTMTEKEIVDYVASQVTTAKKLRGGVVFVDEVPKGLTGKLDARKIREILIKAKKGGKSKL

[12] = target: T3, Estrogen receptor (Homo sapiens, UniProt P03372);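 note: potency for inhibiting coactivator peptide recruitment to the receptor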
T3 sequence (P03372 whole entry): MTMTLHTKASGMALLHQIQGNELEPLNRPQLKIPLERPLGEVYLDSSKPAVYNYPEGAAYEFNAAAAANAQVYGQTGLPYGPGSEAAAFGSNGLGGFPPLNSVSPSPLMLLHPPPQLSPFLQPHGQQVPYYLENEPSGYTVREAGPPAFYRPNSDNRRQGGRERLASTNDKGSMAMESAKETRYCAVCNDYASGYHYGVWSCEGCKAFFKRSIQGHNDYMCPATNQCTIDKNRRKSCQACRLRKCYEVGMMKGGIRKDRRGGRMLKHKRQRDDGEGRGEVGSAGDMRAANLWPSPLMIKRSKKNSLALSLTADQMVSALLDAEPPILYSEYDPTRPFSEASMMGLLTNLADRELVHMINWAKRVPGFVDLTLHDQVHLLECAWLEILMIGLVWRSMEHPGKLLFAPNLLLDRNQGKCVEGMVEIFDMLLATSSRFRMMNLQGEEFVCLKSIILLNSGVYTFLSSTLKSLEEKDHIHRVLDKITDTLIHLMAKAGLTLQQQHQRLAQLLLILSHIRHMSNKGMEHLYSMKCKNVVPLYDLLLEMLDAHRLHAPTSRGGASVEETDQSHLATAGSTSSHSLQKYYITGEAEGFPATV

[13] = target: T4, Hexokinase (Trypanosoma brucei, UniProt Q38C41); assay: Confirmation assay for inhibitors of Trypanosoma brucei hexokinase 1-Analogue-first series. [Related pubchem assays (depositor defined):AID1430, AID1632, AID2516, AID2560, AID2579, AID2600, AID449725, AID492951]; type: functional
T4 sequence (Q38C41 whole entry): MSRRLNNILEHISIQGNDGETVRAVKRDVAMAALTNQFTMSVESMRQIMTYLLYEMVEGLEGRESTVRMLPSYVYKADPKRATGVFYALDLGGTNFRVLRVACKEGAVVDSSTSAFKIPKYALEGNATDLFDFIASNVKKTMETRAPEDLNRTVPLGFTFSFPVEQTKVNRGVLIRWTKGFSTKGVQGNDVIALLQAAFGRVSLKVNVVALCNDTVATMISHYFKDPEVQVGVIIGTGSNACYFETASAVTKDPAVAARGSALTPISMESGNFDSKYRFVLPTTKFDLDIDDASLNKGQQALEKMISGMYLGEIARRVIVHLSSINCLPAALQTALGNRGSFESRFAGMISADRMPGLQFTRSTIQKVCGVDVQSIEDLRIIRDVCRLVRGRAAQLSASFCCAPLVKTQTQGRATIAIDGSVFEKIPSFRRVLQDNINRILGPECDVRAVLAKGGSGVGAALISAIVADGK

[14] = target: T5, Rac GTPase-activating protein 1 (Homo sapiens, UniProt Q9H0H5); assay: MgcRacGAP GTPase-activating activity inhibitors, confirmation, biochemical, ADP Hunter fluorescence, primary and confirmatory (AID 624330); type: functional
T5 sequence (Q9H0H5 whole entry): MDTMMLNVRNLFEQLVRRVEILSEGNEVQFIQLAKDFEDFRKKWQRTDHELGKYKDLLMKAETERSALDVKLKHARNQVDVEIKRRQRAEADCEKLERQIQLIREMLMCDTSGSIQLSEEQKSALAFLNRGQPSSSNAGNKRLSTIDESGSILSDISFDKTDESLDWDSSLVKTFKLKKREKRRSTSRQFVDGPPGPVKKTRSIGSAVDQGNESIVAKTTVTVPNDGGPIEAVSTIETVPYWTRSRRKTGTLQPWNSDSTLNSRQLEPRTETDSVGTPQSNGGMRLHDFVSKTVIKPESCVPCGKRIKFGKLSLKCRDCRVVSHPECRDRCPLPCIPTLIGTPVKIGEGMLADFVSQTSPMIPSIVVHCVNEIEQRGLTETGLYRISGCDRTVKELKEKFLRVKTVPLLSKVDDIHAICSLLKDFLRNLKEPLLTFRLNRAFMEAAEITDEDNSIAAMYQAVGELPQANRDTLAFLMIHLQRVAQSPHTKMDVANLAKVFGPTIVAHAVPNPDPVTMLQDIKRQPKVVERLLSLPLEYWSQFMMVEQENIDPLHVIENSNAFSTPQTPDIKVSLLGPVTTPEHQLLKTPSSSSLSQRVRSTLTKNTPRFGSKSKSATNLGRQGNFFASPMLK

[15] = HeLa cell cytotoxicity, dose response, cytotoxicity control for MgcRacGAP inhibitor project (AID 624300); type: functional
[16] = target: T6, Nucleotide-binding oligomerization domain-containing protein 1 (Homo sapiens, UniProt Q9Y239); assay: NOD1 signaling inhibitors, SAR follow-up, revised (AID 2333); type: functional
T6 sequence (Q9Y239 whole entry): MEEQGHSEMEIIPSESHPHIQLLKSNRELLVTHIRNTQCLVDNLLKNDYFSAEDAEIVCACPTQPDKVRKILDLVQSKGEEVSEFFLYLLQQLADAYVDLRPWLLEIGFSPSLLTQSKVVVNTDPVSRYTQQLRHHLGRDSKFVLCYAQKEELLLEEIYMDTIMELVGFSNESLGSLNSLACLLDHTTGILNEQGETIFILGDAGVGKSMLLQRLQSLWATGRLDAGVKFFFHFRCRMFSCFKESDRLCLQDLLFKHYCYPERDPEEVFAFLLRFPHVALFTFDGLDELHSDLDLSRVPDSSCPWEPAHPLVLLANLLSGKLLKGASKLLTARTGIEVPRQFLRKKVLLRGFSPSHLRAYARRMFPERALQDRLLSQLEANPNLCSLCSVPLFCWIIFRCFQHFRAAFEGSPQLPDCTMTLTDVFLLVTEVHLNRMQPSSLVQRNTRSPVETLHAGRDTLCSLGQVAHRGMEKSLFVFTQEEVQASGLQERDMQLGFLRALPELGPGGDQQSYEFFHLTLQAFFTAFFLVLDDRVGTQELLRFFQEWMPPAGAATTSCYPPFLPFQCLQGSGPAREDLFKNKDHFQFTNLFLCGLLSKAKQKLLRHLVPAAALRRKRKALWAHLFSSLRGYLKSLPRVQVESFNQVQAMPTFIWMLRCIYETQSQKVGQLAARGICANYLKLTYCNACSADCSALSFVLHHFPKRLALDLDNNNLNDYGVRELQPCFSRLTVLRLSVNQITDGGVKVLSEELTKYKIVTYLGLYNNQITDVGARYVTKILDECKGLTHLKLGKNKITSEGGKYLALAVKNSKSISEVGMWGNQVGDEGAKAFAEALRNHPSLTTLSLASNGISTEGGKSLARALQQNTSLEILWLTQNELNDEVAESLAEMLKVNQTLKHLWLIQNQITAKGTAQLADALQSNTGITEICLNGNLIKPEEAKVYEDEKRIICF

[17] = system: HEK293; assay: NOD2 signaling inhibitors in MDP-stimulated cells, cell-based, uHTS, luminescence (AID 2001); type: functional; conditions: Homo sapiens
[18] = system: HEK293; assay: cells; conditions: Homo sapiens
[19] = system: HEK293; assay: NOD1 signaling inhibitors, primary screen, cell-based, luminescence, uHTS (AID 1578); type: functional; conditions: Homo sapiens
[20] = Luminescence Cell-Based Dose Retest to Confirm Inhibitors of Cancer Stem Cells. [Related pubchem assays (depositor defined):AID2717, AID2721]; type: functional; conditions: Homo sapiens
[21] = system: HEK293; assay: cells; type: functional, cell-based; conditions: Homo sapiens
[22] = target: T7, Hepatocyte nuclear factor 4-alpha (Homo sapiens, UniProt P41235); type: functional, cell-based;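 note: biochemical luminescence-based dose-response counterscreen measuring inhibition of HNF4 dimerization, run alongside a screen for blockers of ABHD5–perilipin-5 interaction; split luciferase complementation of HNF4 fusion proteins in cell lysate measuring dimerization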
T7 sequence (P41235 whole entry): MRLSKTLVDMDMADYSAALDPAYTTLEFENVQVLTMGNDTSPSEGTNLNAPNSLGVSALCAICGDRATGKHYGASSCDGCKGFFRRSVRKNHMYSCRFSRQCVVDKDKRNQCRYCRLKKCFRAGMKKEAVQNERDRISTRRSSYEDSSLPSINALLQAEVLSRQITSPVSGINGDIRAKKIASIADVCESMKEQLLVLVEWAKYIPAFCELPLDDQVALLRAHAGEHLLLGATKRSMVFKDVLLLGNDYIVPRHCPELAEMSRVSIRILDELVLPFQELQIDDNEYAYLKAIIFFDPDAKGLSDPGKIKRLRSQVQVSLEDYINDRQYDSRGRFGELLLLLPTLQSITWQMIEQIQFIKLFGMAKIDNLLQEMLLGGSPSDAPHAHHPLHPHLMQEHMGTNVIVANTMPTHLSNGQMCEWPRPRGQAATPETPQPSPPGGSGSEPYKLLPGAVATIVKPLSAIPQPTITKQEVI

[23] = target: Tumor necrosis factor (Homo sapiens, UniProt P01375); assay: TNFa-triggered NF-kB activation inhibitors, SAR follow-up, cell-based, revised (AID 2337); type: functional
Chain of Tumor necrosis factor (P01375 whole entry): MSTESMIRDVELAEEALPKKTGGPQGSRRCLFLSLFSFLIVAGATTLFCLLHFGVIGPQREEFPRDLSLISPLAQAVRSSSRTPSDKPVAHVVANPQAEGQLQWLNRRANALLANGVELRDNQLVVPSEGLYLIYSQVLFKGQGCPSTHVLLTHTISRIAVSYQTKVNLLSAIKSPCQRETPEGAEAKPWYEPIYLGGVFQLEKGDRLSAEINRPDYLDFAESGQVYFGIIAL

[24] = system: HEK293; assay: cells; type: functional, cell-based; conditions: Homo sapiens; remark: listed apart in the source
[25] = target: Genome polyprotein (dengue virus type 2, UniProt P29990); assay: Dengue-2 NS5 methyltransferase inhibitors, primary screen, biochemical, confirmation dose response (AID 588689); type: functional
Chain of Genome polyprotein (P29990 2492-3391 limits assumed): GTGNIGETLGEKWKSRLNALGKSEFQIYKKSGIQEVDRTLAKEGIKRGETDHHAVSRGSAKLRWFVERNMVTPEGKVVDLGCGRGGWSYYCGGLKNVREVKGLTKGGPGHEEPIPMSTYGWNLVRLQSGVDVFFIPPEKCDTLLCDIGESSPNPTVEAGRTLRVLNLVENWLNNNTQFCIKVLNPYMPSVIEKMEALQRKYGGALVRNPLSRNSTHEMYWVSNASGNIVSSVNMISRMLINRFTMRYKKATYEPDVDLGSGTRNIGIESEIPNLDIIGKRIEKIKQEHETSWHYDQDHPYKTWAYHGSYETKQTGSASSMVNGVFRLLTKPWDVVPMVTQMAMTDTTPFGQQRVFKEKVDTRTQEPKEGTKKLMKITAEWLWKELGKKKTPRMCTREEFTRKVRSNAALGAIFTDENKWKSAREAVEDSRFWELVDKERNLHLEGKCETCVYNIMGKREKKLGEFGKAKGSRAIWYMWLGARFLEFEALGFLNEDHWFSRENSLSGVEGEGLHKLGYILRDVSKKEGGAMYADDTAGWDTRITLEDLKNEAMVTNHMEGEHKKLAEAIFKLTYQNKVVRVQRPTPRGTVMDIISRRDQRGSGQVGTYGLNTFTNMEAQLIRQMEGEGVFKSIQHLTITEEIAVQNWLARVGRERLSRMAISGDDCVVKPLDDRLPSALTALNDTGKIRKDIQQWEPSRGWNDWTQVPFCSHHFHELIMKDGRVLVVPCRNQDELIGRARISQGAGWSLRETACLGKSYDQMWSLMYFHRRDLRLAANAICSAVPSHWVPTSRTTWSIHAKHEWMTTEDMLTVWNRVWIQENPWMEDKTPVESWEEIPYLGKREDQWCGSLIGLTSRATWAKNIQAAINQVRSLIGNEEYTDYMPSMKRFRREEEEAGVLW
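Throughout, for AC50: cells exposed to compound for roughly 70 hours or longer before luminescence read.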

## CCOc1ccc(NC(=O)Cn2c(=O)n(CCCC(=O)NC3CCN(Cc4ccccc4)CC3)c(=O)c3ccccc32)cc1
[1]
  IC50: > 20 µM (inactive)
[2]
  IC50: 5.19 µM (active)
[3]
  IC50: 5.27 µM (active)

## C/N=c1/nc(-c2ccccc2)n(-c2ccccc2)s1
[4]
  IC50: 29.4 µM (active)
[5]
  IC50: 15.9 µM (active)
[6]
  IC50: > 100 µM (inactive)
[7]
  IC50: 10.1 µM (active)

## O=c1[nH]c(-c2ccc(F)cc2)nc2c1sc(=S)n2-c1ccccc1
[8]
  IC50: > 20 µM (inactive)

## CN(C)CCCN(C(=O)c1ccc(S(=O)(=O)N2CCCCC2)cc1)c1nc2cc3c(cc2s1)OCO3
[1]
  IC50: > 20 µM (inactive)
[2]
  IC50: > 20 µM (inactive)
[3]
  IC50: 12.7 µM (active)

## O=C(NCc1ccco1)c1nn2c(C(F)(F)F)cc(-c3cccs3)nc2c1Br
[9]
  EC50: > 112 µM (not active)
[10]
  EC50: > 32 µM (inactive)
[11]
  EC50: > 112 µM (not active)
[12]
  IC50: 36.9 µM (not active)

## O=c1c2ccccc2sn1-c1cccc(F)c1
[13]
  IC50: 1.82 µM (active)

## CCOC(=O)CSc1nnc(S)s1
[5]
  IC50: 15 µM (active)
[6]
  IC50: > 100 µM (inactive)

## O=c1c2ccccc2sn1-c1ccc(Cl)cc1Cl
[13]
  IC50: 5.03 µM (active)
[14]
  IC50: 31.8 µM (active)
[15]
  CC50: 74.7 µM (active)
[7]
  IC50: 17 µM (active)

## COc1ccc(C(=O)Nc2cc(C(F)(F)F)ccc2C(=O)O)cc1
[13]
  IC50: 17 µM (active)

## Oc1nc(/C=C/c2ccc(Cl)cc2Cl)cc(C(F)(F)F)n1
[16]
  IC50: 1.74 µM (active)
[17]
  IC50: 5.9 µM (active)
[18]
  IC50: 11.9 µM (active)
[19]
  EC50: 3.83 µM (active)
[20]
  AC50: 1.49 µM (active)
[21]
  IC50: > 20 µM (inactive)
[22]
  IC50: 4.57 µM (active)
[23]
  IC50: 3.75 µM (active)
[24]
  IC50: 7.72 µM (active)
[25]
  IC50: 68.2 µM (active)

## Sc1nnc(-c2ccccn2)n1/N=C/c1cccc(Cl)c1
[5]
  IC50: 2.81 µM (active)
[6]
  IC50: > 100 µM (inactive)
